# Test results as given in BindingDB's records for doi:10.1016/j.bmcl.2003.08.064 (Abbott Laboratories, 2003).
# How the values were obtained:
# [1] = biological target: T1, Tyrosine-protein phosphatase non-receptor type 2 (Homo sapiens, UniProt P17706); test: PTP1B and TCPTP Inhibition Assay; settings: pH 7.5; 22 °C
# T1 sequence (P17706 whole entry): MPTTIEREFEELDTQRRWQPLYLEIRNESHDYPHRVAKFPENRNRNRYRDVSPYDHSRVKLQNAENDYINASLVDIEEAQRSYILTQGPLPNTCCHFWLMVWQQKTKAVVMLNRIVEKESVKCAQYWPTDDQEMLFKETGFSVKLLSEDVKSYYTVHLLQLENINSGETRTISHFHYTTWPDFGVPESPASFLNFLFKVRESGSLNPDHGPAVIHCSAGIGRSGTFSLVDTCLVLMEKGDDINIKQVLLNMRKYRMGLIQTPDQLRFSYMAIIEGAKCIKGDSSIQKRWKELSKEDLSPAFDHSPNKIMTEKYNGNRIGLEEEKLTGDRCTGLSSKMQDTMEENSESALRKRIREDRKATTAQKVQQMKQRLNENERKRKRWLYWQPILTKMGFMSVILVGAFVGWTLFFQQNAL
# Experimental: (§1) For each concentration of test compound or DMSO control, the initial rates were used to fit the rectangular hyperbola of Michaelis-Menten by nonlinear regression analysis. The ratio of the apparent Km/Vmax vs inhibitor concentration was plotted, and the Ki was calculated by linear regression to be the negative X-intercept.
# [2] = biological target: T2, Tyrosine-protein phosphatase non-receptor type 1 [1-298] (Homo sapiens, UniProt P18031); test: PTP1B and TCPTP Inhibition Assay; settings: pH 7.5; 22 °C
# T2 construct: 1-298
# T2 sequence (P18031 whole entry): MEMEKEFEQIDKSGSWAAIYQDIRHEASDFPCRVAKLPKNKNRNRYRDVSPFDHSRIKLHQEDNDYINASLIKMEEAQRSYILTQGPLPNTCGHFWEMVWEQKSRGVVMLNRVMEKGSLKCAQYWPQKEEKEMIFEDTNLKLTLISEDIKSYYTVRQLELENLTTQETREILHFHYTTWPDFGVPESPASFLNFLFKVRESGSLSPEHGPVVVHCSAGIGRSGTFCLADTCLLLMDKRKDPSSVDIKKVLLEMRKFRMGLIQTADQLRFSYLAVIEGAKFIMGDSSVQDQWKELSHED
# Experimental: as §1
structure (smiles),measurement,setting,value
CCc1cc(CC(NC(C)=O)C(=O)NCCCCOc2cccc(O)c2C(=O)OC)ccc1N(C(=O)C(=O)O)c1ccccc1C(=O)O (centres undefined),Ki,[1],65 µM
COC(=O)c1c(O)cccc1OCCCCNC(=O)[C@H](Cc1ccc(OCC(=O)O)cc1)NC(=O)OC(C)(C)C,Ki,[1],> 200 µM
COC(=O)c1c(O)cccc1OCCCCNC(=O)[C@H](Cc1ccc(OCC(=O)O)c(O)c1)NC(C)=O (racemic) [2-{4-[2-acetamido-2-({4-[3-hydroxy-2-(methoxycarbonyl)phenoxy]butyl}carbamoyl)ethyl]-2-hydroxyphenoxy}acetic acid],Ki,[1],182 µM
COC(=O)c1c(O)cccc1OCCCCNC(=O)[C@H](Cc1ccc(C=CC(=O)O)cc1)NC(=O)OC(C)(C)C [(2Z)-3-{4-[(2S)-2-{[(tert-butoxy)carbonyl]amino}-2-({4-[3-hydroxy-2-(methoxycarbonyl)phenoxy]butyl}carbamoyl)ethyl]phenyl}prop-2-enoic acid],Ki,[2],> 200 µM
